Reference: US20250179061A1 (SIRONAX LTD., priority 2022, published 2025)
pIC50: −log10 of the molar value.

tested on: HT-29 cells; experiment: HT-29 necroptosis cell viability assay (TNF-α/SMAC mimetic/zVAD-FMK, CellTiter-Glo); assay type: cell-based; conditions: Homo sapiens; HT-29 cells stimulated with TNF-α (10 ng/ml), SMAC mimetic (6 μM) and zVAD-FMK (10 μM); 20 hours; CellTiter-Glo ATP luminescence; geometric mean IC50 from 10 points; read-out: Activity
Protocol: Compounds 1-702 of the disclosure were tested for biological activity, following the experimental procedures described below.
• Cell line: HT-29 (ATCC® HTB-38™) • Culture medium: McCOY's 5A, Gibco, Cat No. 16600-082 • FBS, Gibco, Cat No. 10099-141 C • Trypsin: Gibco, Cat No. 25200-056 • DMSO: Sigma, Cat No. 67-68-5, 1L • Assay plate: Corning #3903 • Compound dilution plate: Corning #3357 • Inducers: TNFα, GenScript, Cat No. Z01001-50, • SmacM, Cat. No., HY-15989, MedChemExpress (MCE) • Z_VAD FMK, TargetMol, T6013 • Cell Titer-Glo® Luminescent Cell Viability Assay Kit: Promega, Cat No. G7573 • EnVision: PerkinElmer, 2105-0010
• 1. HT-29 cells were checked every day to make sure that they were healthy and growing as expected. They were subjected to sub-culturing when they were approximately 80% confluent. • 2. The culture medium, McCOY's 5A medium (Gibco, Cat No. 16600-082) with 10% fetal bovine serum or FBS (Gibco, Cat No. 10099-141C), was pre-warmed in a 37° C. water bath for at least 30 min. • 3. When the cells had reached a desired level of confluency of 80% in a T75 flask, the medium was aspirated, and the cells were washed with warm phosphate buffered saline or PBS two times. • 4. 2-3 ml fresh warm trypsin (Gibco, Cat No. 25200-056) solution was added to the washed cells. The flask with the cells was transferred to a 37° C. incubator. • 5. After 5 minutes, the side of the flask was tapped, and the flask was examined under a microscope for detachment of the cells to the flask. If necessary, the cells were kept in the incubator for an additional 5-10 minutes, with occasional tapping, until lifting was complete. • 6. The trypsin reaction was neutralized by transferring 6-9 ml cell culture medium to sterile 15 ml conical tubes, and by centrifuging the cell culture at 300×g for 7 minutes to pellet the cells (supernatant decanted). • 7. The cells were resuspended in fresh cell culture medium and the cell counting was performed using a hemocytometer. • 8. 100 μl of the resuspended cell culture medium containing ˜5,000 cells were transferred into each well of the sterile 96-well cell culture plate (Corning 3903) and cultured overnight at 37° C. with 5% CO2.
• 1. All test compounds were dissolved in DMSO (Dimethyl sulfoxide) to create a 20 mM stock. • 2. 3 μl of 20 mM stock of each compound was mixed with 27 μl DMSO, and the compound solution was further diluted at a titration ratio of 1:3 (20 μl compound solution+40 μl DMSO) till the 10 points end. • 3. All culture medium was removed from assay plates filled with HT-29 cell cultures. The cells were then washed with 1 PBS, and resuspsended in fresh, FBS-free McCOY's 5A medium containing a cocktail of TNF-α (10 ng/ml), a SMAC mimetic compound (6 μM) and Z-VAD-fluoromethylketone or zVAD-FMK (10 μM) to stimulate the HT-29 cells to increase RIP1 kinase levels and necroptosis. • 4. 0.5 μL of the diluted compound solution was added to the corresponding 96-well assay plates. • 5. The assay plates were incubated for 20 hours at 37° C. with 5% CO2.
• 1. The CellTiter-Glo® Luminescent Cell Viability Assay was employed to detect the ATP levels of viable HT-29 cells. • 2. The CellTiter-Glo® buffer and the lyophilized substrate were equilibrated to room temperature prior to use. • 3. The CellTiter-Glo® substrate was resuspended with CellTiter-Glo® buffer, then mixed by gently vortexing to obtain a homogeneous solution. • 4. 20 μl of the enzyme/substrate mixture was transferred by multi-channel pipetting into 96-well assay plates. • 5. The assay plates were placed on an orbital shaker and the contents were shaken for 3 minutes to induce cell lysis. • 6. The assay plates were incubated at room temperature for 10 minutes to stabilize the luminescent signal. • 7. The luminescence signals were read and recorded with EnVision. • 8. The geometric mean IC50 values were calculated from 10 points response dose with duplicates. […]

Row | SMILES | pIC50
1 | Cc1cc(C(N)=O)n(C)c1Oc1ccc(-n2nc3n(c2=O)[C@H](c2ccccc2)CC3)cc1F (single isomer, unassigned) [Example 697] | > 7.00
2 | Cc1nc(C(N)=O)sc1Oc1ccc(-n2nc3n(c2=O)[C@H](c2ccccc2F)C[C@@H]3F)cc1F (single isomer, unassigned) [Example 698] | > 7.00
3 | Cn1nc(C(N)=O)cc1Oc1ccc(-n2nc3n(c2=O)[C@H](c2ccccc2F)C[C@@H]3F)cc1F (single isomer, unassigned) [Example 699] | > 7.00
4 | Cc1nc(C(N)=O)sc1Oc1ccc(-n2nc3n(c2=O)[C@H](c2cncc(F)c2)CC3)cc1F (single isomer, unassigned) [Example 700] | > 7.00
5 | Cc1nc(C(N)=O)oc1Oc1ccc(-n2nc3n(c2=O)[C@H](c2c(F)cccc2F)CC3)cc1F (single isomer, unassigned) [Example 701] | > 7.00
6 | Cc1nc(C(N)=O)sc1Oc1ccc(-n2nc3n(c2=O)[C@H](C2CCCC2)CC3)cc1F (single isomer, unassigned) [Example 702] | > 7.00
7 | Cc1nc(Br)sc1Oc1ccc(-n2ncn(Cc3c(F)cccc3F)c2=O)cc1F [Example 1, 2-(4-((2-bromo-4-methylthiazol-5-yl)oxy)-3-fluorophenyl)-4-(2,6-difluorobenzyl)-2,4-dihydro-3H-1,2,4-triazol-3-one] | > 7.00
8 | Cc1ncsc1Oc1ccc(-n2ncn(Cc3c(F)cccc3F)c2=O)cc1F [Example 2, 4-(2,6-difluorobenzyl)-2-(3-fluoro-4-((4-methylthiazol-5-yl)oxy)phenyl)-2,4-dihydro-3H-1,2,4-triazol-3-one] | > 7.00
9 | Cc1ncsc1Oc1ccc(-n2ncn(Cc3c(F)cccc3F)c2=O)cc1Cl [Example 5, 2-(3-chloro-4-((4-methylthiazol-5-yl)oxy)phenyl)-4-(2,6-difluorobenzyl)-2,4-dihydro-3H-1,2,4-triazol-3-one] | > 7.00
10 | Cc1nc(Br)sc1Oc1ccc(-n2ncn(Cc3ccccc3C#N)c2=O)cc1F [Example 6, 2-((1-(4-((2-bromo-4-methylthiazol-5-yl)oxy)-3-fluorophenyl)-5-oxo-1-5-dihydro-4H-1,2,4-triazol-4-yl)methyl)benzonitrile] | 6.00 to 7.00
11 | Cc1nc(Br)sc1Oc1ccc(-n2ncn(Cc3c(F)cccc3C#N)c2=O)cc1F [Example 7, 2-((1-(4-((2-bromo-4-methylthiazol-5-yl)oxy)-3-fluorophenyl)-5-oxo-1,5-dihydro-4H-1,2,4-triazol-4-yl)methyl)-3-fluorobenzonitrile] | > 7.00
12 | Cc1ncsc1Oc1ccc(-n2ncn(Cc3ccccc3F)c2=O)cc1F [Example 8, 2-(3-fluoro-4-((4-methylthiazol-5-yl)oxy)phenyl)-4-(2-fluorobenzyl)-2,4-dihydro-3H-1,2,4-triazol-3-one] | > 7.00
13 | Cc1ncsc1Oc1ccc(-n2ncn(Cc3cc(Cl)ccn3)c2=O)cc1F [Example 9, 4-((4-chloropyridin-2-yl)methyl)-2-(3-fluoro-4-((4-methylthiazol-5-yl)oxy)phenyl)-2,4-dihydro-3H-1,2,4-triazol-3-one] | 6.00 to 7.00
14 | COC(=O)c1nc(C)c(Oc2ccc(-n3ncn(Cc4cc(Cl)ccn4)c3=O)cc2F)s1 [Example 10, methyl 5-(4-(4-((4-chloropyridin-2-yl)methyl)-5-oxo-4,5-dihydro-1H-1,2,4-triazol-1-yl)-2-fluorophenoxy)-4-methylthiazole-2-carboxylate] | 5.00 to 6.00
15 | Cc1nc(Oc2ccncc2)sc1-n1ncn(Cc2c(F)cccc2F)c1=O [Example 11, 4-(2,6-difluorobenzyl)-2-(4-methyl-2-(pyridin-4-yloxy)thiazol-5-yl)-2,4-dihydro-3H-1,2,4-triazol-3-one] | < 5.00
16 | O=c1n(-c2ccc(Oc3cc(Cl)ncc3F)c(F)c2)nc2n1C(c1ccccc1)CC2 (stereo not shown) [Example 12, 2-(4-((2-chloro-5-fluoropyridin-4-yl)oxy)-3-fluorophenyl)-5-phenyl-2,5,6,7-tetrahydro-3H-pyrrolo[2,1-c][1,2,4]triazol-3-one] | > 7.00
17 | Cc1nc(C(N)=O)sc1Oc1ccc(-n2nc3n(c2=O)C(c2ccccc2)CC3)cc1F (stereo not shown) [Example 13, 5-(2-fluoro-4-(3-oxo-5-phenyl-6,7-dihydro-3H-pyrrolo[2,1-c][1,2,4]triazol-2(5H)-yl)phenoxy)-4-methylthiazole-2-carboxamide] | > 7.00
18 | Cc1nc(C(=O)N2C[C@@H](C)O[C@@H](C)C2)sc1Oc1ccc(-n2nc3n(c2=O)[C@H](c2ccccc2)CC3)cc1F [Example 20, (S)-2-(4-((2-((2S,6R)-2,6-dimethylmorpholine-4-carbonyl)-4-methylthiazol-5-yl)oxy)-3-fluorophenyl)-5-phenyl-2,5,6,7-tetrahydro-3H-pyrrolo[2,1-c][1,2,4]triazol-3-one] | > 7.00
19 | Cc1nc(C(=O)NC2COC2)sc1Oc1ccc(-n2nc3n(c2=O)[C@H](c2ccccc2)CC3)cc1F [Example 21, (S)-5-(2-fluoro-4-(3-oxo-5-phenyl-6,7-dihydro-3H-pyrrolo[2,1-c][1,2,4]triazol-2(5H)-yl)phenoxy)-4-methyl-N-(oxetan-3-yl)thiazole-2-carboxamide] | > 7.00
20 | Cc1nc(C(=O)N2CCOCC2)sc1Oc1ccc(-n2ncn(Cc3c(F)cccc3F)c2=O)cc1F [Example 22, 4-(2,6-difluorobenzyl)-2-(3-fluoro-4-((4-methyl-2-(morpholin-4-carbonyl)thiazol-5-yl)oxy)phenyl)-2,4-dihydro-3H-1,2,4-triazol-3-one] | > 7.00
21 | Cc1c(C(N)=O)nn(C)c1Oc1ccc(-n2nc3n(c2=O)C(c2ccccc2)CC3)cc1F (stereo not shown) [Example 23, 5-(2-fluoro-4-(3-oxo-5-phenyl-6,7-dihydro-3H-pyrrolo[2,1-c][1,2,4]triazol-2(5H)-yl)phenoxy)-1,4-dimethyl-1H-pyrazole-3-carboxamide] | > 7.00
22 | Cc1nc(C(=O)NCCN2CCOCC2)sc1Oc1ccc(-n2ncn(Cc3c(F)cccc3F)c2=O)cc1F [Example 24, 5-(4-(4-(2,6-diflurobenzyl)-5-oxo-4,5-dihydro-1H-1,2,4-triazol-1-yl)-2-fluorophenoxy)-4-methyl-N-(2-morpholinoethyl)thiazole-2-carboxamide] | > 7.00
23 | Cc1nc(C(=O)NCCN2CCOCC2)sc1Oc1ccc(-n2ncn(Cc3ccccc3F)c2=O)cc1F [Example 25, 5-(2-fluoro-4-(4-(2-fluorobenzyl)-5-oxo-4,5-dihydro-1H-1,2,4-triazol-1-yl)phenoxy)-4-methyl-N-(2-morpholinoethyl)thiazole-2-carboxamide] | > 7.00
24 | Cc1cccnc1Cn1cnn(-c2ccc(Oc3sc(C(N)=O)nc3C)c(F)c2)c1=O [Example 26, 5-(2-fluoro-4-(4-((3-methylpyridin-2-yl)methyl)-5-oxo-4,5-dihydro-1H-1,2,4-triazol-1-yl)phenoxy)-4-methylthiazole-2-carboxamide] | 6.00 to 7.00
25 | Cc1nc(C(=O)NCCN)sc1Oc1ccc(-n2ncn(Cc3ccccc3F)c2=O)cc1F [Example 27, N-(2-aminoethyl)-5-(2-fluoro-4-(4-(2-fluorobenzyl)-5-oxo-4,5-dihydro-1H-1,2,4-triazol-1-yl)phenoxy)-4-methylthiazole-2-carboxamide] | > 7.00
